How the values were obtained:
[1] = tested on: Phospho AKT; assay: Western blot, PI3K/AKT/mTOR pathway inhibition: phospho AKT; format: cell-based; details: 1 hour treatment; signals quantified using β-actine
From the text: (§1) Western blot technique was used, using an Odissey Licor equipment to identify the proteins. Phospho AKT, AKT and Phospho GSK3β antibodies were used as first antibodies and anti-mouse 680nm as second antibody. Then, the signals were quantified using β-actine.

[2] = tested on: Phospho GSK3β; assay: Western blot, PI3K/AKT/mTOR pathway inhibition: phospho GSK3β; format: cell-based; details: 1 hour treatment; signals quantified using β-actine
From the text: as §1

[3] = tested on: AKT; assay: Western blot, PI3K/AKT/mTOR pathway inhibition: total AKT; format: cell-based; details: 60 min treatment; signals quantified using β-actine
From the text: as §1

[4] = tested on: mice; details: mouse, ip, 50 mg/kg
Method: In order to evaluate the in vivo toxicity, mice were intraperitoneal injected with MDN-0088 at 50 mg/kg.

[5] = tested on: MCF-7 cell line; assay: Cell cycle analysis by flow cytometry (propidium iodide DNA staining); format: cell-based; details: for percentage of cells in each cell cycle phase: G0/G1 / percentage of cells in each cell cycle phase: G2/M / percentage of cells in each cell cycle phase: S: 72 hours of incubation
Method: For the evaluation of the MDN-0088 activity, the MCF-7 cell line was used. The method used was flow cytometry to determine the effect of MDN-0088 on cell cycle. This method of DNA staining utilizes ethanol to fix the cells and permeabilize the membrane, which allows the dye (Propidium Iodide) to enter the cells.
For this purpose, cells were seeded in 6-well plates at 200,000 cells/well. After 24 hours, cells were serum-deprived for 72 hours. Medium was removed and compounds/standards were added in fresh medium at a different concentration (4µL of compound/2mL fresh medium). DMSO concentration was 0.2% in all wells. After 72 hours of incubation (37 °C, 5% CO2), cells were scrapped and centrifuged (1200rpm for 5 min) and washed twice with PBS. 330 µL of cell suspension was placed in a Facs tube and 660 µL ice cold 100% ethanol was added drop-wise to the tube walls. Tubes were mixed by vortexing slowly during addition of ethanol. They were left at […] overnight.
Tubes were centrifuged (1200 rpm for 5 min) to remove ethanol, 4 mL PBS was added and they were washed at 1200 rpm for 5 min. The supernatant was removed and cells were resuspended in DNA staining solution (500 µL PBS/IP 20µg/mL/Rnase 0.2 mg/ml). Data was acquired on a flow cytometer (Accury, BD).
As shown in Table 3 and Figure 1, an increase in G0/G1 and a decrease both in S and G2/M phase were observed. […]

Row | SMILES | pAKT [1] | phospho-GSK3 β [2] | AKT total [3] | weight loss or changes in behavior ([4]; in vivo) | in vivo toxicity [4] | percentage of cells in each cell cycle phase: G0/G1 ([5]; MCF-7, 6.25 µM) [%] | percentage of cells in each cell cycle phase: G2/M ([5]; MCF-7, 6.25 µM) [%] | percentage of cells in each cell cycle phase: S ([5]; MCF-7, 6.25 µM) [%] | percentage of cells in each cell cycle phase: G0/G1 ([5]; MCF-7, 12.5 µM) [%] | percentage of cells in each cell cycle phase: G2/M ([5]; MCF-7, 12.5 µM) [%] | percentage of cells in each cell cycle phase: S ([5]; MCF-7, 12.5 µM) [%] | percentage of cells in each cell cycle phase: G0/G1 ([5]; MCF-7, 25 µM) [%] | percentage of cells in each cell cycle phase: G2/M ([5]; MCF-7, 25 µM) [%] | percentage of cells in each cell cycle phase: S ([5]; MCF-7, 25 µM) [%] | percentage of cells in each cell cycle phase: G0/G1 ([5]; MCF-7, 50 µM) [%] | percentage of cells in each cell cycle phase: G2/M ([5]; MCF-7, 50 µM) [%] | percentage of cells in each cell cycle phase: S ([5]; MCF-7, 50 µM) [%] | effect on cell cycle ([5]; MCF-7, result in words)
1 | O=c1cc(N2CCOCC2)oc2c(-c3ccccc3)cccc12 [LY294002, reference compound] | 0.055 | 0.042 | 0.61 |  |  |  |  |  |  |  |  |  |  |  |  |  |  | 
2 | CCCCCCCC(=O)CCCc1oc(=O)ccc1O[C@@H]1O[C@H](CO)[C@@H](O)[C@H](O)[C@H]1O [MDN-0088] | 0.027 | 0.037 | 0.58 | no weight loss or changes in their behavior | absence of toxicity | 48.17 | 17.71 | 6.09 | 53.49 | 15.76 | 5.64 | 56.9 | 14.38 | 3.49 | 62.79 | 10.99 | 2.37 | blocks the cell cycle in G0/G1 phase

Source: patent EP3292132B1, “PI3K INHIBITOR COMPOUNDS TO TREAT CANCER” (FUNDACIÓN MEDINA. Centro de Excelencia en Investigación de …, priority 2015, dated 2016)
